Data from patent US11090326B2, “Fixed-dose pharmaceutical composition comprising rifabutin, clarithromycin, and clofazimine” (RedHill Biopharma Ltd., priority 2008, dated 2021).
Like-named read-outs stand apart in the source and are kept apart here. Each block holds one compound with its values, some of them ahead of it.

Assays:
[1] = Bioavailability study: single-dose plasma pharmacokinetics of 2 test formulations of triple combination capsules
Description: The objectives of this study were to 1) determine and compare the rate and extent of absorption and 2) to assess the safety and tolerability of 2 test formulations of a combination product of clarithromycin, rifabutin and clofazimine (herein after “triple combination”).
This study followed a randomized, open-label, single-dose, 1-way 2-arm parallel design in 24 normal, healthy, non-smoking male and female subjects.
Subjects were admitted to the clinic the day before dosing, and remained until the 24.00 hour post-dose blood draw, at which time they were allowed to leave the clinic and after which they were required to return for subsequent blood draws.
Following an overnight fast of at least 10 hours, subjects began a high fat content meal 30 minutes prior to drug administration. Subjects consumed this meal in 30 minutes or less; however, the study drug was administered 30 minutes after the start of the meal. The FDA standard high-fat content breakfast consisted of the following: 2 eggs fried in butter, 2 strips of bacon, 2 slices of toast with butter, 4 ounces of hash brown potatoes and 8 fluid ounces (about.240 mL) of whole milk.
Following an overnight fast of at least 10 hours, and 30 minutes after the start of a high fat content meal, subjects received one of the following treatments at 0.00 hour on Day 1 of the study period according to a randomization scheme:
The medications were administered orally. The drugs were given 1 or more capsules at a time. All capsules were ingested within 1 minute.
During the study period, 19 blood samples (1×4 mL and 1×6 mL tube for each sampling time point) were collected from each subject by direct venipuncture or by Vasofix® intravenous catheter using pre-cooled, labelled blood collection tubes containing potassium ethylenediaminetetraacetic acid (EDTA) as the anticoagulant. Blood samples were collected at 0.00 (pre-dose), 0.25, 0.50, 0.75, 1.00, 1.50, 2.00, 2.50, 3.00, 4.00, 6.00, 8.00, 10.00, 12.00, 16.00, 24.00, 48.00, 60.00, and 96.00 hours post-dose. The clock times of all blood draws for plasma concentration analyses were recorded.
The 6 mL tubes were used to measure clarithromycin and 14-hydroxyclarithromycin. The 4 mL tubes were used to measure rifabutin, 25-O-desacetylrifabutin and clofazimine.
(§1) The blood samples were stored in an ice bath before centrifugation and were centrifuged as soon as possible under refrigerated conditions (at 4° C.) at 3500 rpm for 7 minutes. The collected plasma from each blood collection tube was aliquotted into pre-cooled labelled polypropylene tubes. A minimum of 1.5 mL of plasma was transferred from the 6 mL tubes into the first polypropylene tube, and all remaining plasma, if any, was transferred into a second polypropylene tube. The samples were kept in an ice bath, and flash frozen in an upright position, then stored at −70±10° C. until assayed.
as §1, with “In another procedure, the blood” for “The blood”, “of 0.8” for “of 1.5”, “the 4 mL,” for “the 6 mL”
Upon completion of the clinical portion of the study, all samples were analysed for clarithromycin and 14-hydroxyclarithromycin in the plasma samples or for rifabutin, 25-O-desacetylrifabutin and clofazimine in the plasma samples.
Clarithromycin and 14-hydroxyclarithromycin—Information about these analytes was obtained using routine methods known in the art.

[2] = Literature Cmax of clarithromycin (Chu et al., 1993); settings: in vivo; clarithromycin 190 mg dose; read-out: Cmax, literature value scaled to dose of the study
Method: The results obtained from dry and PEG formulations of triple combination capsules were approximately proportional to literature findings. Chu et al. (1993) reported that the rise of clarithromycin peak concentrations occur non-linearly to dose which might explain any slight disproportionality between the literature values and those obtained from triple combination capsules dry and PEG formulations.
Clarithromycin—500 mg (four 125-mg capsules, Abbott Laboratories) every 12 hours for 5 doses.

[3] = single dose of 250 mg of clarithromycin; cited from earlier work
clinical = settings: human, in vivo, 90 mg
Description: Gatti et al. (1998) conducted a comparative study of rifabutin absorption and disposition in HIV-infected patients with or without wasting syndrome.

[4] = single 300 mg dose of rifabutin, fasting; 10 HIV patients without wasting syndrome (Gatti et al., 1998); cited from earlier work
[5] = Literature Cmax of clofazimine (Nix et al., 2004); settings: in vivo; clofazimine 20 mg dose; read-out: Cmax, literature value scaled to dose of the study
[6] = clofazimine 200 mg dose, fed (Nix et al., 2004); cited from earlier work
[7] = clarithromycin, geometric mean ratio dry/PEG formulation of triple combination capsules
[8] = rifabutin, geometric mean ratio dry/PEG formulation of triple combination capsules
[9] = 25-O-desacetylrifabutin, geometric mean ratio dry/PEG formulation of triple combination capsules
[10] = clofazimine, geometric mean ratio dry/PEG formulation of triple combination capsules

Relative bioavailability, Ratio of Means, AUC0-inf [1, 7]: 80.78%
Relative bioavailability, Ratio of Means, AUC0-t [1, 7]: 80.34%
Relative bioavailability, Ratio of Means, Cmax [1, 7]: 75.03%
Cmax [2]: 593 ng/mL
Compound: CC[C@H]1OC(=O)[C@H](C)[C@@H](O[C@H]2C[C@@](C)(OC)[C@@H](O)[C@H](C)O2)[C@H](C)[C@@H](O[C@@H]2O[C@H](C)C[C@H](N(C)C)[C@H]2O)[C@](C)(OC)C[C@@H](C)C(=O)[C@H](C)[C@@H](O)[C@]1(C)O [CLARITHROMYCIN, clarithromycin]
Cmax [3]: 780 ± 250 ng/mL

Relative bioavailability, Ratio of Means, AUC0-inf [1, 8]: 73.23%
Relative bioavailability, Ratio of Means, AUC0-t [1, 8]: 77.00%
Relative bioavailability, Ratio of Means, Cmax [1, 8]: 88.74%
Cmax (clinical): 102 ng/mL
Compound: CO[C@H]1/C=C/O[C@@]2(C)Oc3c(C)c(O)c4c(c3C2=O)C2=NC3(CCN(CC(C)C)CC3)NC2=C(NC(=O)/C(C)=C\C=C\[C@H](C)[C@H](O)[C@@H](C)[C@@H](O)[C@@H](C)[C@H](OC(C)=O)[C@@H]1C)C4=O [RIFABUTIN, rifabutin]
Cmax (peak concentration) [4]: 340 ± 140 ng/mL

Compound: 25-O-desacetylrifabutin [25-0-DESACETYLRIFABUTIN]
Relative bioavailability, Ratio of Means, AUC0-t [1, 9]: 73.95%
Relative bioavailability, Ratio of Means, Cmax [1, 9]: 73.43%
Relative bioavailability, Ratio of Means, AUC0-inf ([1]; 25-O-desacetylrifabutin, geometric mean ratio dry/PEG formulation, approximately 65% of subjects excluded): 86.06%

Relative bioavailability, Ratio of Means, AUC0-t [1, 10]: 102.38%
Relative bioavailability, Ratio of Means, Cmax [1, 10]: 118.63%
Relative bioavailability, Ratio of Means, AUC0-t ([1]; clofazimine, geometric mean ratio dry/PEG formulation of triple combination capsules, listed as clofazimine): 102%
Relative bioavailability, Ratio of Means, AUC0-inf ([1]; clofazimine, geometric mean ratio dry/PEG formulation, approximately 50% (A) and 75% (B) of subjects excluded): 120.52%
Cmax [5]: 23 ng/mL
Compound: CC(C)/N=c1\cc2n(-c3ccc(Cl)cc3)c3ccccc3nc-2cc1Nc1ccc(Cl)cc1 [CLOFAZIMINE, clofazimine]
Cmax [6]: 227 ng/mL
